Results published in ChEMBL document CHEMBL3804790, “Fragment-Based Approaches to the Development of Mycobacterium tuberculosis CYP121 Inhibitors” (J Med Chem, 2016).

Columns and labels:
Mycocyclosin synthase [1] = target: T1, Mycocyclosin synthase (Mycobacterium tuberculosis, UniProt P9WPP7); set-up: species or system C41(DE3)
T1 sequence (P9WPP7 whole entry): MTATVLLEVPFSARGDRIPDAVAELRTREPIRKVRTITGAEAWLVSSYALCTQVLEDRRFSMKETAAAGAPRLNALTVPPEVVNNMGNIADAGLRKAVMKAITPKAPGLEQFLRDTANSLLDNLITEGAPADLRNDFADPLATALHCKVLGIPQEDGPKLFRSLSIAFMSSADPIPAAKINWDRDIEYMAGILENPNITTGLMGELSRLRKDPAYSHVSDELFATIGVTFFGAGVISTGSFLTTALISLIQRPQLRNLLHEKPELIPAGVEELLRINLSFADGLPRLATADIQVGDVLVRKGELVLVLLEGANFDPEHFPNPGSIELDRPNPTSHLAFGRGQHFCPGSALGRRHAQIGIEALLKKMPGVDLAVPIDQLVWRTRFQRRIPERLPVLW

Mycocyclosin synthase [2] = target: T1, Mycocyclosin synthase; set-up: species or system C41(DE3); remark: listed apart in the source
[3] = target: T2, Methyl-branched lipid omega-hydroxylase (Mycobacterium tuberculosis (strain ATCC 25618 / H37Rv), UniProt P9WPP3); set-up: species or system C41(DE3)
T2 sequence (P9WPP3 whole entry): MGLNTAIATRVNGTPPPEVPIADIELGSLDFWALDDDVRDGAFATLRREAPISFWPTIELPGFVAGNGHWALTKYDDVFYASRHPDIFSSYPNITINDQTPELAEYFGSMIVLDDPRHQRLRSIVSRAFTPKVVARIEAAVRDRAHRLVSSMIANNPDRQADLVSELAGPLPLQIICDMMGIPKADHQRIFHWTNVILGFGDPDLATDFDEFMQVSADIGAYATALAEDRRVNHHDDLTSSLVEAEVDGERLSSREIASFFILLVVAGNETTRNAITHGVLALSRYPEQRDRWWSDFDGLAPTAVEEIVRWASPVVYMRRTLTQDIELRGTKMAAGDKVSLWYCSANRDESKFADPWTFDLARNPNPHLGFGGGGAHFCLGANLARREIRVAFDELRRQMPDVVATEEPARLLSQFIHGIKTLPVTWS

[4] = target: T3, Steroid C26-monooxygenase (Mycobacterium tuberculosis, UniProt P9WPP1); set-up: species or system C41(DE3)
T3 sequence (P9WPP1 whole entry): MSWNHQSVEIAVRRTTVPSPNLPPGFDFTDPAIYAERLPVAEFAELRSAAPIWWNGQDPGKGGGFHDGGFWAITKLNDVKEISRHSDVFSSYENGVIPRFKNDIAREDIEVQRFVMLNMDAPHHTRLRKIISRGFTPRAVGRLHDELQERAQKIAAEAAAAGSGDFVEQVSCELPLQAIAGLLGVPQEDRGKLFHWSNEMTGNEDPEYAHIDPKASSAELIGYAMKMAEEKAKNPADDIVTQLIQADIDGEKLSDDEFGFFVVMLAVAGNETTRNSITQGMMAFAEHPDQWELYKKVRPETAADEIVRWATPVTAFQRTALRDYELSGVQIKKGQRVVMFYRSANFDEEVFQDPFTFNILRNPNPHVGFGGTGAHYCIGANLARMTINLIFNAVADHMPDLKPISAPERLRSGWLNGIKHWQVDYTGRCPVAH

[5] = Inhibition of CYP1A1/CYP1A2 in human liver microsomes using ethoxyresorufin as substrate by fluorescence analysis; assay type: ADME
Cytochrome P450 2C9 = Cytochrome P450 2C9 (Homo sapiens, UniProt P11712); assay: Inhibition of CYP2C9 in human liver microsomes using tolbutamide as substrate by LC-MS/MS analysis; assay type: ADME
Chain of Cytochrome P450 2C9 (P11712 whole entry): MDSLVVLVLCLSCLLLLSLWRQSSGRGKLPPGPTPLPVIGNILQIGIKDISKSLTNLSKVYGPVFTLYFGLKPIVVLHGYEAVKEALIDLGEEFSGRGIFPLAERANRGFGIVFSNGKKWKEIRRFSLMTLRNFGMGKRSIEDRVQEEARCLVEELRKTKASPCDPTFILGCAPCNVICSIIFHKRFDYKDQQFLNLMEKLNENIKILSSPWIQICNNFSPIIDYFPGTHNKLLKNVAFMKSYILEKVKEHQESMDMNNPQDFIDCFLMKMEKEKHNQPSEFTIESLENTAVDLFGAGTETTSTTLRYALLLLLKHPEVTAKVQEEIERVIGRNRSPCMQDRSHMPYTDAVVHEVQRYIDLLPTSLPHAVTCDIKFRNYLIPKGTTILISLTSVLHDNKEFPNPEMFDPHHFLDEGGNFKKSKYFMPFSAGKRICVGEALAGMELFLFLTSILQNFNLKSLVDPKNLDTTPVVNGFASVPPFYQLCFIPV

Cytochrome P450 2C19 = Cytochrome P450 2C19 (Homo sapiens, UniProt P33261); assay: Inhibition of CYP2C19 in human liver microsomes using mephenytoin as substrate by LC-MS/MS analysis; assay type: ADME
Chain of Cytochrome P450 2C19 (P33261 whole entry): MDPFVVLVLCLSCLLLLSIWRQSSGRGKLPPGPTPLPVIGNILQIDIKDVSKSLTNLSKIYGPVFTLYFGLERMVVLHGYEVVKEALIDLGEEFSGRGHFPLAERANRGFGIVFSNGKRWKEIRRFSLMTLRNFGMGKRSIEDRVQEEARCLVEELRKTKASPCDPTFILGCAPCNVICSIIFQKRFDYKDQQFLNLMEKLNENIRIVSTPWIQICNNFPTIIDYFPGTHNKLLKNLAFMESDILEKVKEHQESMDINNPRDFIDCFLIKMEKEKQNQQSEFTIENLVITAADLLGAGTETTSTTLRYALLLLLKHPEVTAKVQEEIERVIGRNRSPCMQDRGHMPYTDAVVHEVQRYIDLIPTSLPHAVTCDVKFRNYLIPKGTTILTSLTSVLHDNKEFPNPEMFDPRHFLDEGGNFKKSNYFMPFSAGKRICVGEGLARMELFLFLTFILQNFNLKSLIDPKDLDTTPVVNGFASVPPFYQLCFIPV

Cytochrome P450 2D6 = Cytochrome P450 2D6 (Homo sapiens, UniProt P10635); assay: Inhibition of CYP2D6 in human liver microsomes using dextromethorphan as substrate by LC-MS/MS analysis; assay type: ADME
Chain of Cytochrome P450 2D6 (P10635 whole entry): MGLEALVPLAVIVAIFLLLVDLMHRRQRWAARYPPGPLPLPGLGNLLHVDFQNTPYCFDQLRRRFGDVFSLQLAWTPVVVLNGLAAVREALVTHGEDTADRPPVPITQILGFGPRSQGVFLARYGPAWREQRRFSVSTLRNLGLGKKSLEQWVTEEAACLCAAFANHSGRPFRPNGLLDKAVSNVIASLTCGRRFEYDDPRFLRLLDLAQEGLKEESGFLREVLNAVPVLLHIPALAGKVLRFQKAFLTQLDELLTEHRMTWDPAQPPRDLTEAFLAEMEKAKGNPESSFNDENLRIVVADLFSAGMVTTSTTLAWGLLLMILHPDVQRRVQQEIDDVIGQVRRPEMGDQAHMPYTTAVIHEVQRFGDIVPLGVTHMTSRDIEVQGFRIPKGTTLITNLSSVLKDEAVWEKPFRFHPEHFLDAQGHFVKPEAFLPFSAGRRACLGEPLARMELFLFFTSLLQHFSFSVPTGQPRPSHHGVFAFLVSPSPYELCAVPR

[6] = test system: Mycobacterium tuberculosis; assay: Antimycobacterial activity against Mycobacterium tuberculosis H37Rv assessed as bacterial growth inhibition after 2 weeks; assay type: functional; settings: 336 h
Cytochrome P450 3A4 = Cytochrome P450 3A4 (Homo sapiens, UniProt P08684)
Chain of Cytochrome P450 3A4 (P08684 whole entry): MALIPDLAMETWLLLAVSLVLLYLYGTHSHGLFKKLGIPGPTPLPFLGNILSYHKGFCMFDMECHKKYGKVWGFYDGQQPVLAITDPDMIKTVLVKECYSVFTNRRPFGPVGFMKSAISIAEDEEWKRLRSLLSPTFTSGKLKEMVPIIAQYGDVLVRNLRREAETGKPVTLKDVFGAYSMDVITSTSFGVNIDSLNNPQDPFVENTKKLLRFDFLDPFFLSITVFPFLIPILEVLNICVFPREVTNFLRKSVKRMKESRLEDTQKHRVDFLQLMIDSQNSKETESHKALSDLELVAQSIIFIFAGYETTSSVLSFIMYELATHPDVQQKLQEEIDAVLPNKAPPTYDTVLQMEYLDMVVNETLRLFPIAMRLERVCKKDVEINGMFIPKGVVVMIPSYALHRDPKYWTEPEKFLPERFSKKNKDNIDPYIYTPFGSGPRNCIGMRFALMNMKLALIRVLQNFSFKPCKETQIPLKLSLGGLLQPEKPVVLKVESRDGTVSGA
Description: Inhibition of CYP3A4 in human liver microsomes using midazolam as substrate by LC-MS/MS analysis

[7] = test system: CYP1A (relative to Mycobacterium tuberculosis CYP121); assay: in vitro; settings: human, c41(de3)
Description: Selectivity ratio of IC50 for human CYP1A to Kd for Mycobacterium tuberculosis His6-tagged CYP121 expressed in Escherichia coli C41 (DE3) cells

## Oc1ccc(-c2n[nH]c(NCc3ccc(O)c(Br)c3)c2-c2ccc(O)cc2)cc1
Mycocyclosin synthase [1]; read-out: Kd
  Kd: 19 µM

## Oc1ccc(-c2n[nH]c(NCc3ccsc3)c2-c2ccc(O)cc2)cc1
Mycocyclosin synthase [1]; read-out: Kd
  Kd: 18 µM

## Oc1ccc(-c2n[nH]c(NCc3ccco3)c2-c2ccc(O)cc2)cc1
Mycocyclosin synthase [1]; read-out: Kd
  Kd: 24 µM

## Nc1[nH]nc(-c2cccc(O)c2)c1-c1ccc(O)cc1
Mycocyclosin synthase [1]; read-out: Kd
  Kd: 60 µM

## Oc1ccc(-c2n[nH]c(NCc3ccncc3)c2-c2ccc(O)cc2)cc1
Mycocyclosin synthase [1]; read-out: Kd
  Kd: 240 µM

## Oc1ccc(Nc2[nH]nc(-c3ccc(O)cc3)c2-c2ccc(O)cc2)cc1
Mycocyclosin synthase [1]; read-out: Kd
  Kd: 15 µM

## Nc1[nH]ncc1-c1ccc(O)cc1
Mycocyclosin synthase [1]; read-out: Kd
  Kd: 1870 µM

## Nc1cccc(Cn2cncn2)c1
Mycocyclosin synthase [1]; read-out: Kd
  Kd: 1600 µM

## O=C(Nc1[nH]nc(-c2ccc(O)cc2)c1-c1ccc(O)cc1)c1ccncc1
Mycocyclosin synthase [1]; read-out: Kd
  Kd: 600 µM

## Oc1ccc(Nc2cc(-c3ccc(O)cc3)[nH]n2)cc1
Mycocyclosin synthase [1]; read-out: Kd
  Kd: 10.6 µM

## Nc1cccc(-c2cccc(-c3c(-c4ccc(O)cc4)n[nH]c3N)c2)c1
Mycocyclosin synthase [1]; read-out: Kd
  Kd: 0.74 µM
Mycocyclosin synthase [2]
  Kd: 0.015 µM
[3]
  Kd: 0.86 µM
[4]
  Kd: 18.4 µM
[5]
  IC50: 21.4 µM
Cytochrome P450 2C9
  IC50: > 25 µM
Cytochrome P450 2C19
  IC50: > 25 µM
Cytochrome P450 2D6
  IC50: > 25 µM
[6]
  MIC90: ≥ 50 µM
Cytochrome P450 3A4
  IC50: 11.3 µM
[7]
  selectivity ratio: 1430

## Oc1ccc(-n2cncn2)cc1
Mycocyclosin synthase [1]; read-out: Kd
  Kd: 1700 µM

## Nc1cccc(-c2cc(-c3cn[nH]c3N)ccc2OCc2ccccc2)c1
Mycocyclosin synthase [1]; read-out: Kd
  Kd: 28 µM

## Nc1[nH]nc(-c2ccc(O)cc2)c1-c1ccc(O)cc1
Mycocyclosin synthase [1]; read-out: Kd
  Kd: 40 µM
[6]
  MIC90: ≥ 50 µM

## Nc1cccc(-c2cccc(-c3cn[nH]c3N)c2)c1
Mycocyclosin synthase [1]; read-out: Kd
  Kd: 140 µM
Mycocyclosin synthase [2]
  Kd: 14 µM
[5]
  IC50: 1.22 µM
Cytochrome P450 2C9
  IC50: > 25 µM
Cytochrome P450 2C19
  IC50: > 25 µM
Cytochrome P450 2D6
  IC50: > 25 µM
[6]
  MIC90: ≥ 50 µM
Cytochrome P450 3A4
  IC50: > 25 µM
[7]
  selectivity ratio: 0.09

## Oc1ccc(-c2n[nH]c(NCc3c[nH]cn3)c2-c2ccc(O)cc2)cc1
Mycocyclosin synthase [1]; read-out: Kd
  Kd: 275 µM

## Nc1ccc(-c2cccc(-c3cn[nH]c3N)c2)cc1
Mycocyclosin synthase [2]
  Kd: 230 µM

## COc1ccc(-c2cn[nH]c2N)cc1-c1cccc(N)c1
Mycocyclosin synthase [1]; read-out: Kd
  Kd: 68 µM

## Cc1ccc2cc(N)ccc2n1
Mycocyclosin synthase [1]; read-out: Kd
  Kd: 400 µM

## NC(=O)c1cc(Cl)ccc1N
Mycocyclosin synthase [1]; read-out: Kd
  Kd: 3400 µM

## Oc1ccc(-c2n[nH]c(NCc3ccc4[nH]ccc4c3)c2-c2ccc(O)cc2)cc1
Mycocyclosin synthase [1]; read-out: Kd
  Kd: 60 µM

## O=C(Nc1[nH]nc(-c2ccc(O)cc2)c1-c1ccc(O)cc1)c1ccccc1
Mycocyclosin synthase [1]; read-out: Kd
  Kd: 160 µM

## Nc1cc(-c2ccc(O)cc2)n[nH]1
Mycocyclosin synthase [1]; read-out: Kd
  Kd: 1300 µM

## Oc1ccc(-c2n[nH]c(NCc3cccc4[nH]ncc34)c2-c2ccc(O)cc2)cc1
Mycocyclosin synthase [1]; read-out: Kd
  Kd: 45 µM

## Oc1ccc(CNc2[nH]nc(-c3ccc(O)cc3)c2-c2ccc(O)cc2)cc1
Mycocyclosin synthase [1]; read-out: Kd
  Kd: 6.3 µM
[5]
  IC50: > 25 µM
Cytochrome P450 2C9
  IC50: > 25 µM
Cytochrome P450 2C19
  IC50: > 25 µM
Cytochrome P450 2D6
  IC50: > 25 µM
[6]
  MIC90: ≥ 50 µM
Cytochrome P450 3A4
  IC50: > 25 µM

## O=C(Nc1[nH]nc(-c2ccc(O)cc2)c1-c1ccc(O)cc1)c1ccc(O)cc1
Mycocyclosin synthase [1]; read-out: Kd
  Kd: 78 µM

## COc1ccc(-c2n[nH]c(N)c2-c2cccc(-c3cccc(N)c3)c2)cc1
Mycocyclosin synthase [1]; c41(de3)
  Kd: ND(Insoluble)
Mycocyclosin synthase [2]
  Kd: 0.034 µM
[6]
  MIC90: ≥ 50 µM

## Nc1cccc(-c2cc(-c3c(-c4ccc(O)cc4)n[nH]c3N)ccc2O)c1
[6]
  MIC90: ≥ 50 µM

## Nc1[nH]nc(-c2cccc(F)c2)c1-c1ccc(O)cc1
Mycocyclosin synthase [1]; read-out: Kd
  Kd: 252 µM

## Nc1[nH]nc(-c2ccc(O)cc2O)c1-c1ccc(O)cc1
Mycocyclosin synthase [1]; read-out: Kd
  Kd: 181 µM
